Assay results as given in patent US20240072809A1, “ASGPR-BINDING COMPOUNDS FOR THE DEGRADATION OF EXTRACELLULAR PROTEINS” (Avilar Therapeutics, Inc., priority 2020, published 2024).

molecular target: ASGPR (Homo sapiens (Human), UniProt P07306); test: Affinity to ASGPR measured by surface plasmon resonance (SPR); format: binding; conditions: ASGPR ligands with linker, Table 5; read-out: ASGPR_SPR Binding KD
Sequence (P07306 whole entry): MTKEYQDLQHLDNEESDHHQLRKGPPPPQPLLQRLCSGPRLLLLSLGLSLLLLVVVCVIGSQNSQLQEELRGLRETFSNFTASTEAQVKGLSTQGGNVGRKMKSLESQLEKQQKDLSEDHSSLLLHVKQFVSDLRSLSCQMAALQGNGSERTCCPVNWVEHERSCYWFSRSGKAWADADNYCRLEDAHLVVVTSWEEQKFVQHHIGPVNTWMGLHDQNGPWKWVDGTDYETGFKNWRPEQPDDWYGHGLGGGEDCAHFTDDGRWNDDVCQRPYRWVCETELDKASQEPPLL

| Compound | Kd |
| --- | --- |
| O=[N+]([O-])c1ccc(NCCOCCOCCOCCOC[C@H]2OC[C@H](Nc3nccc(C(F)(F)F)n3)[C@@H](O)[C@H]2O)c([N+](=O)[O-])c1 [Compound 35, (2R,3R,4R,5S)-2-(13-((2,4-dinitrophenyl)amino)-2,5,8,11-tetraoxatridecyl)-5-((4-(trifluoromethyl)pyrimidin-2-yl)amino)tetrahydro-2H-pyran-3,4-diol] | < 100 µM |

same assay, conditions: ASGPR ligands, Table 2; Biacore 8K, 25° C., steady state fit; read-out: SPR Binding External Calculation: KD

| Kd | Compound |
| --- | --- |
| < 100 µM | CO[C@H]1O[C@H](CO)[C@H](O)[C@H](O)[C@H]1Nc1nc(Cl)ns1 [Compound A105, (2R,3R,4R,5R,6S)-5-((3-chloro-1,2,4-thiadiazol-5-yl)amino)-2-(hydroxymethyl)-6-methoxytetrahydro-2H-pyran-3,4-diol] |
| < 100 µM | CC(=O)N[C@@H]1CO[C@H](CO)[C@H](O)[C@@H]1O [Compound A127, N-((3R,4R,5R,6R)-4,5-dihydroxy-6-(hydroxymethyl)tetrahydro-2H-pyran-3-yl)acetamide] |
| < 100 µM | CO[C@H]1O[C@H](CO)[C@H](O)[C@H](O)[C@H]1Nc1ncc(Cl)cc1F [Compound A113] |
| > 1000 µM | CC1C(Oc2ccccc2)O[C@H](CO)[C@H](O)[C@@H]1O (stereo in doubt) [Compound A192, (2R,3R,4R,5R,6S)-2-(hydroxymethyl)-5-methyl-6-phenoxytetrahydro-2H-pyran-3,4-diol] |
| 100 to 500 µM | O=c1nc(N[C@H]2CO[C@H](CO)[C@H](O)[C@@H]2O)[nH]c(=O)[nH]1 [Compound A283] |
| 100 to 500 µM | OC[C@H]1OC[C@@H](COc2ccccc2)[C@@H](O)[C@H]1O [Compound A193, (2R,3R,4R,5S)-2-(hydroxymethyl)-5-(phenoxymethyl)tetrahydro-2H-pyran-3,4-diol] |
| < 100 µM | OC[C@H]1OC[C@@H](Cn2cnnn2)[C@@H](O)[C@H]1O [Compound A196, (2R,3R,4R,5R)-5-((1H-tetrazol-1-yl)methyl)-2-(hydroxymethyl)tetrahydro-2H-pyran-3,4-diol] |
| > 1000 µM | C[C@@H]1[C@H](Oc2ccccc2)O[C@H](CO)[C@H](O)[C@@H]1O [Compound A191, (2R,3R,4R,5S,6S)-2-(hydroxymethyl)-5-methyl-6-phenoxytetrahydro-2H-pyran-3,4-diol] |
| 100 to 500 µM | CO[C@@H]1O[C@H](CO)[C@H](O)[C@H](O)[C@H]1Nc1nc(N2CCOCC2)ns1 [Compound A117, (2R,3R,4R,5R,6R)-2-(hydroxymethyl)-6-methoxy-5-((3-morpholino-1,2,4-thiadiazol-5-yl)amino)tetrahydro-2H-pyran-3,4-diol] |
| > 1000 µM | C[C@@H]1CO[C@H](CO)[C@H](O)[C@@H]1O [Compound A182, (2R,3R,4R,5R)-2-(hydroxymethyl)-5-methyltetrahydro-2H-pyran-3,4-diol] |

| Compound | Kd |
| --- | --- |
| CO[C@@H]1O[C@H](CO)[C@H](O)[C@H](O)[C@H]1Nc1nc(=O)[nH]c(=O)[nH]1 [Compound A112, 6-(((2R,3R,4R,5R,6R)-4,5-dihydroxy-6-(hydroxymethyl)-2-methoxytetrahydro-2H-pyran-3-yl)amino)-1,3,5-triazine-2,4(1H,3H)-dione] | < 100 µM |

same assay, conditions: ASGPR ligands, Table 4; class symbols; read-out: ASGPR_PR Binding KD

| Compound | Kd |
| --- | --- |
| (2R,3R,4R,5R)-2-(hydroxymethyl)-5-((4-methylpiperazin-1-yl)methyl)tetrahydro-2H-pyran-3,4-diol [Compound A212] | 100 to 500 µM |
| OC[C@H]1OC[C@@H](CN2CCCCC2)[C@@H](O)[C@H]1O [Compound A213, (2R,3R,4R,5R)-2-(hydroxymethyl)-5-(piperidin-1-ylmethyl)tetrahydro-2H-pyran-3,4-diol] | 100 to 500 µM |
| COc1cc(Cl)nc(N[C@H]2[C@H]3OC[C@](CO)(O3)[C@H](O)[C@@H]2O)n1 [Compound A292, (1S,2R,3R,4R,5S)-4-((4-chloro-6-methoxypyrimidin-2-yl)amino)-1-(hydroxymethyl)-6,8-dioxabicyclo[3.2.1]octane-2,3-diol] | < 100 µM |
| OC[C@H]1OC[C@H](Nc2cccc(C(F)(F)F)n2)[C@@H](O)[C@H]1O [Compound A302] | < 100 µM |
| OC[C@@]12CO[C@@H](O1)[C@H](Nc1nc(Cl)ns1)[C@@H](O)[C@H]2O [Compound A287, (1S,2R,3R,4R,5S)-4-((3-chloro-1,2,4-thiadiazol-5-yl)amino)-1-(hydroxymethyl)-6,8-dioxabicyclo[3.2.1]octane-2,3-diol] | < 100 µM |
| COc1cc(C#N)nc(N[C@H]2[C@H]3OC[C@](CO)(O3)[C@H](O)[C@@H]2O)n1 [Compound A294, 2-(((1S,2R,3R,4R,5S)-2,3-dihydroxy-1-(hydroxymethyl)-6,8-dioxabicyclo[3.2.1]octan-4-yl)amino)-6-methoxypyrimidine-4-carbonitrile] | < 100 µM |
| OC[C@H]1OC[C@H](Nc2nc(Br)ns2)[C@@H](O)[C@H]1O [Compound A299, (2R,3R,4R,5S)-5-[(3-bromo-1,2,4-thiadiazol-5-yl)amino]-2-(hydroxymethyl)oxane-3,4-diol] | < 100 µM |
| OC[C@H]1OC[C@H](Nc2nccc(C(F)F)n2)[C@@H](O)[C@H]1O [Compound A335] | < 100 µM |
| OC[C@H]1OC[C@H](Nc2ncc(Cl)c(C(F)(F)F)n2)[C@@H](O)[C@H]1O [Compound A324] | < 100 µM |
| COc1nc(Cl)cc(N[C@H]2CO[C@H](CO)[C@H](O)[C@@H]2O)n1 [Compound A327] | < 100 µM |
| O=C(NC[C@@H]1CO[C@H](CO)[C@H](O)[C@@H]1O)C(F)(F)F [Compound A186, N-(((3R,4R,5R,6R)-4,5-dihydroxy-6-(hydroxymethyl)tetrahydro-2H-pyran-3-yl)methyl)-2,2,2-trifluoroacetamide] | > 1000 µM |
| N#Cc1nc(Cl)cc(N[C@H]2CO[C@H](CO)[C@H](O)[C@@H]2O)n1 [Compound A320] | < 100 µM |
| COc1nc(N[C@H]2CO[C@H](CO)[C@H](O)[C@@H]2O)nc(OC)n1 [Compound A325] | < 100 µM |

Second part, the compound after the results:

| Kd | Compound |
| --- | --- |
| < 100 µM | COc1cc(N[C@H]2[C@H]3OC[C@](CO)(O3)[C@H](O)[C@@H]2O)nc(C#N)n1 [Compound A426] |
| < 100 µM | N#Cc1nc(N[C@H]2CO[C@H](CO)[C@H](O)[C@@H]2O)c2cccn2n1 [Compound A373, 4-(((3S,4R,5R,6R)-4,5-dihydroxy-6-(hydroxymethyl)tetrahydro-2H-pyran-3-yl)amino)pyrrolo[2,1-f][1,2,4]triazine-2-carbonitrile] |
| < 100 µM | CO[C@H]1O[C@H](CO)[C@H](O)[C@H](O)[C@H]1Nc1ncns1 [Compound A378] |
| > 1000 µM | NC[C@@H]1CO[C@H](CO)[C@H](O)[C@@H]1O [Compound A425, (2R,3R,4R,5R)-5-(aminomethyl)-2-(hydroxymethyl)tetrahydro-2H-pyran-3,4-diol] |
| < 100 µM | OC[C@H]1OC[C@H](Nc2cccc(C(F)(F)F)c2)[C@@H](O)[C@H]1O [Compound A355, (2R,3R,4R,5S)-2-(hydroxymethyl)-5-((3-(trifluoromethyl)phenyl)amino) tetrahydro-2H-pyran-3,4-diol] |
| < 100 µM | C=CCO[C@H]1O[C@H](CO)[C@H](O)[C@H](O)[C@H]1NC(=O)C(F)(F)F [Compound A404, N-((2S,3R,4R,5R,6R)-2-(allyloxy)-4,5-dihydroxy-6-(hydroxymethyl)tetrahydro-2H-pyran-3-yl)-2,2,2-trifluoroacetamide] |
| 100 to 500 µM | OC[C@H]1O[C@H]2[C@@H]([C@@H](O)[C@H]1O)C2(Cl)Cl [Compound A397, (1S,3R,4R,5R,6R)-7,7-dichloro-3-(hydroxymethyl)-2-oxabicyclo[4.1.0]heptane-4,5-diol] |
| < 100 µM | OC[C@@]12CO[C@@H](O1)[C@H](Nc1cncc(C(F)(F)F)n1)[C@@H](O)[C@H]2O [Compound A427] |

same assay, conditions: ASGPR ligands, Table 4; numeric lower bounds; read-out: ASGPR_PR Binding KD

| Compound | Kd |
| --- | --- |
| COc1cc(N[C@H]2CO[C@H](CO)[C@H](O)[C@@H]2O)nc(C#N)n1 [Compound A333] | > 10 µM |
| OC[C@H]1OC[C@H](Nc2ncc(-c3ccccc3)cn2)[C@@H](O)[C@H]1O [Compound A311] | > 20 µM |
| OC[C@H]1OC[C@H](Nc2cc(C(F)(F)F)cnn2)[C@@H](O)[C@H]1O [Compound A308] | > 20 µM |
| OC[C@H]1OC[C@H](Nc2ccc(Cl)nn2)[C@@H](O)[C@H]1O [Compound A316] | > 20 µM |
| OC[C@H]1OC[C@H](Nc2ccc(C(F)(F)F)nn2)[C@@H](O)[C@H]1O [Compound A313] | > 20 µM |
| OC[C@H]1OC=C(C(F)(F)F)[C@@H](O)[C@H]1O [Compound A221-2, (2R,3R,4R)-2-(hydroxymethyl)-5-(trifluoromethyl)-3,4-dihydro-2H-pyran-3,4-diol] | > 200 µM |

More lines, now with the values ahead:

| Kd | Compound |
| --- | --- |
| > 20 µM | COc1cc(N2CCN(C)CC2)nc(N[C@H]2CO[C@H](CO)[C@H](O)[C@@H]2O)n1 [Compound A350, (2R,3R,4R,5S)-2-(hydroxymethyl)-5-((4-methoxy-6-(4-methylpiperazin-1-yl)pyrimidin-2-yl)amino)tetrahydro-2H-pyran-3,4-diol] |
| > 20 µM | CSc1cc(N[C@H]2CO[C@H](CO)[C@H](O)[C@@H]2O)nc(C(N)=O)n1 [Compound A352, 4-(((3S,4R,5R,6R)-4,5-dihydroxy-6-(hydroxymethyl)tetrahydro-2H-pyran-3-yl)amino)-6-(methylthio)pyrimidine-2-carboxamide] |
| > 200 µM | NC(=O)C[C@@H]1CO[C@H](CO)[C@H](O)[C@@H]1O [Compound A399, 2-((3R,4R,5R,6R)-4,5-dihydroxy-6-(hydroxymethyl)tetrahydro-2H-pyran-3-yl)acetamide] |
| > 200 µM | CC(=O)NCCNC[C@@H]1CO[C@H](CO)[C@H](O)[C@@H]1O [Compound A402, N-(2-((((3R,4R,5R,6R)-4,5-dihydroxy-6-(hydroxymethyl)tetrahydro-2H-pyran-3-yl)methyl)amino)ethyl)acetamide] |
| > 20 µM | CO[C@@H]1O[C@H](CO)[C@H](O)[C@H](O)[C@H]1Nc1nc(C#N)cs1 [Compound A386] |
| > 200 µM | CN1CCN(C[C@@H]2CO[C@H](CO)[C@H](O)[C@@H]2O)CC1 [Compound A390, (2R,3R,4R,5R)-2-(hydroxymethyl)-5-((4-methylpiperazin-1-yl)methyl) tetrahydro-2H-pyran-3,4-diol] |
